# According to PMC10792649 (Current Research in Microbial Sciences, 2023):
# Molecular target: OROV endonuclease (N-terminal endonuclease domain of OROV RNA-polymerase) (Oropouche virus, UniProt A0A0B5CUJ1)
# Assay: fluorescence assay, cleavage of labelled DNA FAM-TCTCTAGCAGTGGCGCC-TAM
# Type: biochemical
smiles,measurement,value
"COc1cc2[nH]c3c(OC)c(OC)ccc3c(=O)c2c(OC)c1OC [FAC21, 1,2,3,5,6-Pentamethoxy-9-(10H)-acridinone]",IC50,1400 ± 300 nM
